In assay [1] the test system is Streptococcus pneumoniae IMC B-1231 (PRSP). In words: Antimicrobial activity test (MIC), clinical isolate IMC B-1231. It counts as cell-based. How it is done: (§1) Using Streptococcus pneumoniae that include clinical isolates of PRSP, the antimicrobial activity of each of the prepared anti-PRSP agents was measured in accordance with the “determination method of minimum inhibitory concentration of drug against bacteria” of Japanese Society of Chemotherapy (for re-revised version, see Chemotherapy 29; 76, 1981).
(§2) 11 test strains of Streptococcus pneumoniae including IMC B-0919 are all clinical isolates, of which 2 strains, IMC B-0921 and IMC B-1229, are classified into penicillin susceptible Streptococcus pneumoniae (PSSP) and the remaining 9 strains are classified into penicillin-resistant Streptococcus pneumoniae (PRSP) (according to NCCLS standards).

Assay [2] relates to general Gram-positive bacteria and Gram-negative bacteria. The settings on record: Non-Patent Literatures 1 and 2, Patent Literature 1; cited from earlier work.
For assay [3], the system named is Streptococcus pneumoniae IMC B-1234 (PRSP). In words: Antimicrobial activity test (MIC), clinical isolate IMC B-1234. It counts as cell-based. On the procedure:
as §1, §2

Assay [4] concerns Streptococcus pneumoniae IMC B-0922 (PRSP). In words: Antimicrobial activity test (MIC), clinical isolate IMC B-0922. It counts as cell-based. How it is done:
as §1, §2

In assay [5] the test system is Streptococcus pneumoniae IMC B-0919 (PRSP). The assay can be described thus: Antimicrobial activity test (MIC), clinical isolate IMC B-0919. It counts as cell-based. On the procedure:
as §1, §2

The subject of assay [6] is Streptococcus pneumoniae IMC B-0920 (PRSP). The assay can be described thus: Antimicrobial activity test (MIC), clinical isolate IMC B-0920. Format: cell-based. On the procedure:
as §1, §2

The test system of assay [7] is Streptococcus pneumoniae IMC B-1236 (PRSP). The assay can be described thus: Antimicrobial activity test (MIC), clinical isolate IMC B-1236. Format: cell-based. How it is done: as §1, §2
In assay [8] the test system is Streptococcus pneumoniae IMC B-1235 (PRSP). In words: Antimicrobial activity test (MIC), clinical isolate IMC B-1235. Format: cell-based. On the procedure:
as §1, §2

In assay [9] the test system is Streptococcus pneumoniae IMC B-1229 (PSSP). In words: Antimicrobial activity test (MIC), clinical isolate IMC B-1229. Format: cell-based. The settings on record: PSSP clinical isolate IMC B-1229. How it is done: as §1, §2
Assay [10] deals with penicillin-resistant Streptococcus pneumoniae (PRSP). In words: Anti-PRSP activity, overall statements on the clinical isolates. The settings on record: statement in words. It counts as cell-based. On the procedure:
as §1, §2
For the compounds of the present invention, MKT-1011, MKT-2003, MKT-3002 and MKT-3003, the antimicrobial activity was measured in the same way as in Experimental Example 1.

The subject of assay [11] is Streptococcus pneumoniae IMC B-0921 (PSSP). The assay can be described thus: Antimicrobial activity test (MIC), clinical isolate IMC B-0921. Format: cell-based. The following applies: PSSP clinical isolate IMC B-0921. On the procedure:
as §1, §2

Assay [12] relates to Streptococcus pneumoniae IMC B-1233 (PRSP). In words: Antimicrobial activity test (MIC), clinical isolate IMC B-1233. Format: cell-based. The settings on record: PRSP clinical isolate IMC B-1233. On the procedure: as §1, §2
Assay [13] deals with Streptococcus pneumoniae IMC B-1232 (PRSP). The assay can be described thus: Antimicrobial activity test (MIC), clinical isolate IMC B-1232. It counts as cell-based. The settings on record: PRSP clinical isolate IMC B-1232. How it is done: as §1, §2
[14] abbreviates: PRSP clinical isolate IMC B-0920.
Where [15] appears, read: PRSP clinical isolate IMC B-1236.
[16] abbreviates: PRSP clinical isolate IMC B-1235.
Setting [17] is: Streptococcus pneumoniae, read-out: MIC.

The values below come from US8053418B2, “Anti-penicillin resistant pneumococci agent and novel 16-membered macrolide derivative” (Microbial Chemistry Research Foundation, priority 2005, dated 2011).

≈ marks a conversion by molar mass, not a printed value. Where “and” joins values, the source holds several entries; their conditions need not be identical. Equal values may be shown once. Read-outs that look alike come from different tables or passages of the source.

A word on the MIC: it is the lowest concentration found to suppress growth. In the case of `CC[C@H]1OC(=O)CC[C@H](C)[C@@H](O[C@@H]2O[C@H](C)C[C@H](N(C)C)[C@H]2O)[C@@H](CC=O)C[C@@H](C)C(=O)/C=C/C(C)=C/[C@@H]1CO` [DDMT, 3,4′-dideoxymycaminosyltylonolide, reference compound], the MIC in assay [1] (Streptococcus pneumoniae IMC B-1231, PRSP) is >50 µg/mL and 50 µg/mL; in assay [3] (Streptococcus pneumoniae IMC B-1234, PRSP), 0.20 µg/mL and 0.39 µg/mL and 0.2 µg/mL; in assay [4] (Streptococcus pneumoniae IMC B-0922, PRSP) it was 0.39 µg/mL and 0.20 µg/mL; in [5] (Streptococcus pneumoniae IMC B-0919, PRSP), 0.39 µg/mL and 0.20 µg/mL; in [6] (setting [14]), 0.2 µg/mL and 0.39 µg/mL and 0.20 µg/mL; in assay [6] (Streptococcus pneumoniae IMC B-0920, PRSP), 0.39 µg/mL (≈ 0.689 µM). In addition, the MIC is >50 µg/mL and 50 µg/mL and 25 µg/mL in assay [7] (setting [15]); 50 µg/mL and >50 µg/mL in assay [7] (Streptococcus pneumoniae IMC B-1236, PRSP); >50 µg/mL and 50 µg/mL and 25 µg/mL in assay [8] (setting [16]); >50 µg/mL and 50 µg/mL in [8] (Streptococcus pneumoniae IMC B-1235, PRSP). Also, the antimicrobial effect result in assay [2] is given as “excellent antimicrobial effect”.

Turning to `CC[C@H]1OC(=O)CC[C@H](C)[C@@H](OC2OC(C)CC(N(C)C)C2O)[C@@H](CC=O)C[C@@H](C)C(=O)/C=C/C(C)=C/[C@@H]1COCOCc1ccccc1` (some centres unmarked) [MKT-3703], the minimum inhibitory concentration (MIC) is 6.25 µg/mL (≈ 9.11 µM) in assay [1] (Streptococcus pneumoniae, PRSP clinical isolate IMC B-1231, read-out: MIC); less than 0.025 µg/mL in assay [3] (Streptococcus pneumoniae, PRSP clinical isolate IMC B-1234, read-out: MIC); 0.1 µg/mL (≈ 0.146 µM) in assay [9] (setting [17]); less than 0.025 µg/mL in [11] (setting [17]); less than 0.025 µg/mL in assay [4] (Streptococcus pneumoniae, PRSP clinical isolate IMC B-0922, read-out: MIC); less than 0.025 µg/mL in assay [12] (setting [17]). The minimal inhibitory concentration (MIC) in assay [5] (Streptococcus pneumoniae, PRSP clinical isolate IMC B-0919, read-out: MIC) was less than 0.025 µg/mL; in [6] (Streptococcus pneumoniae, PRSP clinical isolate IMC B-0920, read-out: MIC), 0.025 µg/mL (≈ 0.0364 µM); in assay [7] (Streptococcus pneumoniae, PRSP clinical isolate IMC B-1236, read-out: MIC), 12.5 µg/mL (≈ 18.2 µM); in [8] (Streptococcus pneumoniae, PRSP clinical isolate IMC B-1235, read-out: MIC) it was 6.25 µg/mL (≈ 9.11 µM); in assay [13] (setting [17]) it was less than 0.025 µg/mL. Besides, the anti-PRSP activity result in assay [10] is given as “high anti-PRSP activity”.

In the case of `CCC1OC(=O)CCC(C)C(OC2OC(C)CC(N(C)C)C2O)C(CC=O)CC(C)C(=O)C=CC(C)=CC1CSc1ncccn1` (centres unmarked) [MKT-3802], the MIC in [1] (PRSP clinical isolate IMC B-1231) was 0.39 µg/mL (≈ 0.591 µM); in [3] (PRSP clinical isolate IMC B-1234), 0.025 µg/mL (≈ 0.0379 µM); in assay [9] it was 0.05 µg/mL (≈ 0.0758 µM); in assay [11] it was 0.05 µg/mL (≈ 0.0758 µM); in assay [4] (PRSP clinical isolate IMC B-0922), 0.05 µg/mL (≈ 0.0758 µM); in [12], less than 0.025 µg/mL. For the same compound, the minimum inhibitory concentration (MIC) is less than 0.025 µg/mL in assay [5] (PRSP clinical isolate IMC B-0919); less than 0.025 µg/mL in assay [6] (setting [14]); 12.5 µg/mL (≈ 18.9 µM) in assay [7] (setting [15]); 12.5 µg/mL (≈ 18.9 µM) in assay [8] (setting [16]); less than 0.025 µg/mL in assay [13]. For the same compound, the anti-PRSP activity result in assay [10] was “high anti-PRSP activity”.
